Patent publication US8153809B2, “Dihydropyridone ureas as P2X7 modulators” (Roche Palo Alto LLC, priority 2008, dated 2012)

Biological target: T1, P2X7 (UniProt Q99572)
T1 sequence (Q99572 1-595): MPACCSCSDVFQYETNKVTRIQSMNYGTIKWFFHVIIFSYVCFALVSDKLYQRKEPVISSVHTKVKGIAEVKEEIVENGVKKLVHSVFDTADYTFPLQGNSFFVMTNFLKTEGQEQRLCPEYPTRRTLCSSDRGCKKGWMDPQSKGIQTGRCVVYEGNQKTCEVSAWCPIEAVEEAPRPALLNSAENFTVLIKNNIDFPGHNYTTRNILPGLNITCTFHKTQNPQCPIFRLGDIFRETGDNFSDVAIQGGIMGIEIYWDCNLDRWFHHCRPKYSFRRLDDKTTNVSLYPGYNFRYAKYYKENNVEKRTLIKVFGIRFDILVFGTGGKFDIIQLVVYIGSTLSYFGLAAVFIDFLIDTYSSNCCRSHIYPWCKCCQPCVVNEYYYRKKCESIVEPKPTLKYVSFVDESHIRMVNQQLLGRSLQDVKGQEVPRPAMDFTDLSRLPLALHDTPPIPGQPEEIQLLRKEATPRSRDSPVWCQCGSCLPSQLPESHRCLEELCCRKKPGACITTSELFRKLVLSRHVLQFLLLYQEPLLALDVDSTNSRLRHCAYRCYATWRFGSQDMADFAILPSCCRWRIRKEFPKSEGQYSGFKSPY
Assay: pIC50 values for P2X7 (Table 1)
Format: cell-based
Outline: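 Fluo-3-loaded 1321N1 cells expressing human P2X7 or HEK293 cells expressing rat P2X7, preincubated 20 min at room temperature with antagonist in HBSS/Hepes/probenecid buffer with 2 mM CaCl2. BzATP agonist at 100 μM final (human) or 5 μM final (rat); fluorescence read 5 min, peak normalized to 5 μM ionomycin response.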

SMILES | pIC50
C[C@H](O)c1cc(NC(=O)N2C=CC(=O)C[C@H]2c2ccc(F)cc2)c(Br)cc1Cl [Compound 83, (S)-2-(4-Fluoro-phenyl)-4-oxo-3,4-dihydro-2H-pyridine-1-carboxylic acid [2-bromo-4-chloro-5-((S)-1-hydroxy-ethyl)-phenyl]-amide] | 7.56
O=C1C=CN(C(=O)Nc2ccc3c(c2)NC(=O)C3)[C@H](c2ccc(F)cc2)C1 [Compound 134, (S)-2-(4-Fluoro-phenyl)-4-oxo-3,4-dihydro-2H-pyridine-1-carboxylic acid (2-oxo-2,3-dihydro-1H-indol-6-yl)-amide] | 5.385
COC(=O)c1cccc(NC(=O)N2C=CC(=O)CC2c2ccc(F)cc2)c1C (stereo not shown) [Compound 66, 3-{[2-(4-Fluoro-phenyl)-4-oxo-3,4-dihydro-2H-pyridine-1-carbonyl]-amino}-2-methyl benzoic acid methyl ester] | 6.8
O=C(O)COc1cc(NC(=O)N2C=CC(=O)C[C@H]2c2ccc(F)cc2)c(Br)cc1Cl [Compound 32, (4-Bromo-2-chloro-5-{[(S)-2-(4-fluoro-phenyl)-4-oxo-3,4-dihydro-2H-pyridine-1-carbonyl]-amino}-phenoxy)-acetic acid] | 5.365
O=C1C=CN(C(=O)Nc2ccc3cc[nH]c3c2)C(c2ccc(F)cc2)C1 (stereo not shown) [Compound 90, 2-(4-Fluoro-phenyl)-4-oxo-3,4-dihydro-2H-pyridine-1-carboxylic acid (1H-indol-6-yl)-amide] | 6.615
COc1cc(NC(=O)N2C=CC(=O)CC2c2ccccc2F)c(Br)cc1C (stereo not shown) [Compound 41, 2-(2-Fluoro-phenyl)-4-oxo-3,4-dihydro-2H-pyridine-1-carboxylic acid (2-bromo-5-methoxy-4-methyl-phenyl)-amide] | 6.43
COc1cccc(NC(=O)N2C=CC(=O)CC2c2ccc(F)cc2)c1C (stereo not shown) [Compound 109, 2-(4-Fluoro-phenyl)-4-oxo-3,4-dihydro-2H-pyridine-1-carboxylic acid (3-methoxy-2-methyl-phenyl)-amide] | 8.433
O=C1C=CN(C(=O)NC23CC4CC(CC(C4)C2)C3)C(c2ccc(F)cc2)C1 (stereo not shown) [Compound 64, 2-(4-Fluoro-phenyl)-4-oxo-3,4-dihydro-2H-pyridine-1-carboxylic acid adamantan-1-ylamide] | 5.98
COc1cc(NC(=O)N2C=CC(=O)C[C@H]2c2ccc(F)cc2)c(Br)cc1OC(F)F [Compound 42, (S)-2-(4-Fluoro-phenyl)-4-oxo-3,4-dihydro-2H-pyridine-1-carboxylic acid (2-bromo-4-difluoromethoxy-5-methoxy-phenyl)-amide] | 7.503
COc1cc(NC(=O)N2C=CC(=O)C[C@@H]2c2ccc(F)c(F)c2)c(Br)cc1C [Compound 82, (R)-2-(3,4-Difluoro-phenyl)-4-oxo-3,4-dihydro-2H-pyridine-1-carboxylic acid (2-bromo-5-methoxy-4-methyl-phenyl)-amide] | 5.31

Next, values leading:

pIC50 | SMILES
7.835 | Cc1c(CCO)cccc1NC(=O)N1C=CC(=O)C[C@H]1c1ccc(F)cc1 [Compound 150, (S)-2-(4-Fluoro-phenyl)-4-oxo-3,4-dihydro-2H-pyridine-1-carboxylic acid [3-(2-hydroxy-ethyl)-2-methyl-phenyl]-amide]
7.655 | Cc1cc(C)cc(NC(=O)N2C=CC(=O)C[C@H]2c2ccc(F)cc2)c1 [Compound 104, (S)-2-(4-Fluoro-phenyl)-4-oxo-3,4-dihydro-2H-pyridine-1-carboxylic acid (3,5-dimethyl-phenyl)-amide]
7.9775 | Cc1ccc(C)c(NC(=O)N2C=CC(=O)C[C@H]2c2ccc(F)cc2)c1 [Compound 95, (S)-2-(4-Fluoro-phenyl)-4-oxo-3,4-dihydro-2H-pyridine-1-carboxylic acid (2,5-dimethyl-phenyl)-amide]
7.01 | Cc1ccc(NC(=O)N2C=CC(=O)C[C@H]2c2ccc(F)cc2)cc1C [Compound 158, (S)-2-(4-Fluoro-phenyl)-4-oxo-3,4-dihydro-2H-pyridine-1-carboxylic acid (3,4-dimethyl-phenyl)-amide]
8.155 | Cc1cc2ccn(CCO)c2cc1NC(=O)N1C=CC(=O)C[C@H]1c1ccc(F)cc1 [Compound 156, (S)-2-(4-Fluoro-phenyl)-4-oxo-3,4-dihydro-2H-pyridine-1-carboxylic acid [1-(2-hydroxy-ethyl)-5-methyl-1H-indol-6-yl]-amide]
7.475 | O=C1C=CN(C(=O)Nc2cc(CO)c(Cl)cc2Br)[C@H](c2ccc(F)cc2)C1 [Compound 98, (S)-2-(4-Fluoro-phenyl)-4-oxo-3,4-dihydro-2H-pyridine-1-carboxylic acid (2-bromo-4-chloro-5-hydroxymethyl-phenyl)-amide]
